Assay results as given in patent US20240294545A1 (CSPC Zhongqi Pharmaceutical Technology (Shijiazhuang) Co., …, priority 2020, published 2024).
Marks after values point to notes of the source that are not given here.

Legend:
[1] = tested on: subcutaneous xenograft tumor of human non-small cell lung cancer cell line NCI-H441; assay: NCI-H441 subcutaneous xenograft, combined with irinotecan liposome injection; assay type: in vivo, NU/NU mice
Procedure: 6 Efficacy Test of the Compounds of the Present Disclosure Combined with Irinotecan Liposome Injection on Inhibiting the Growth of Subcutaneous Xenograft Tumor of Human Non-Small Cell Lung Cancer Cell Line NCI-H441
6.1 Experimental Animals: NU/NU Mice, SPF, Female, 20 to 30 g.
Irinotecan liposome injection (HE072), 43 mg:10 mL, milky white liquid, batch No. B37191202, provided by Preparation Research Institute 2 from CSPC Zhongqi Pharmaceutical Technology (Shijiazhuang) Co., Ltd., diluted to an appropriate concentration with 5% glucose injection while testing.
NCI-H441 cells, provided by Nanjing Kebai Biotechnology Co., Ltd.; 1640 culture medium (gibco Company):fetal bovine serum (Lanzhou Bailing)=90%:10%, 37° C., 5% CO2.
NU/NU nude mice were subcutaneously inoculated with NCI-H441 human non-small cell lung cancer cells. When the mean tumor volume reached 170 to 172 mm^3 (15 days after inoculation), the animals were evenly divided into groups according to the tumor volume (d0), with 6 mice in each group. 2.5 mg/kg of HE072 was administered intraperitoneally once a week for 2 times. Vehicle control, 25 mg/kg of A-193, 25 mg/kg of A-182, and 25 mg/kg of AZD1390 were administered intragastrically once a day, from Monday to Thursday every week except Friday to Sunday, for 2 weeks (8 times). The tumor volume was measured twice a week, the body weight of mouse was weighed every day, and the data were recorded. The tumor volume (TV) was calculated according to the formula: TV=½×a×b2, wherein a and b represent the long and short diameters of tumor, respectively. Tumor growth inhibitory rate TGI (%)=[1−(Ti−T0)/(Vi−V0)]×100, wherein Ti represents the mean tumor volume of a given treatment group on a certain day; TO represents the mean tumor volume of this treatment group at the beginning of administration; Vi represents the mean tumor volume of the vehicle control group on a certain day (the same day as that in Ti); V0 represents the mean tumor volume of the vehicle control group at the beginning of administration. At the end of the test (d17), the animals were sacrificed, the tumors were stripped and weighed, and the tumor weight inhibitory rates were calculated.

[2] = tested on: intracranial murine glioma GL-261-Luc; assay: Intracranial murine glioma GL-261-Luc model, combined with radiotherapy; assay type: in vivo, C57BL/6 mice
Procedure: 8 Efficacy Test of the Compounds of the Present Disclosure Combined with Radiotherapy in the Intracranial Murine Glioma GL-261-Luc Model
8.1 Experimental Animals: C57BL/6 Mice, SPF, Female, 19 to 22 g.
GL-261-Luc tumor cells, DMEM medium:fetal bovine serum=90%:10%, accompanied by adding […] L-Glu, 37° C., 5% CO2.
Female C57BL/6 mice were anesthetized with Shutai 50 (60 mg/mL) and thiazine (1.5 mg/mL). Buprenorphine (0.1 mg/kg) was injected subcutaneously 30 min before operation and 6 h after operation to relieve pain. The operation area was disinfected with 70% ethanol solution. A sagittal incision was made on the parietal-occipital bone of anesthetized mice with a sterile scalpel, after cleaning the exposed skull surface with 3% hydrogen peroxide solution, tumor cells were injected. After injection, the skull was cleaned with 3% hydrogen peroxide solution, dried with a sterile dry cotton swab, and the incision was sutured. The state of mice was examined continuously to ensure that mice fully recovered from anesthesia.
The inoculated mice were weighed and intraperitoneally injected with […] (150 mg/kg). After 10 min injection, the animals were anesthetized with a mixture of oxygen and isoflurane. When the animal was completely anesthetized, it was moved into the imaging room for bioluminescence detection. The bioluminescence signal of the whole animal was measured and recorded for the image.
Bioluminescence detection was performed on the second day after operation, and the tumor-bearing mice were randomly divided into groups according to the intensity of bioluminescence. The specific groups were as follows. The administration route was intragastric administration and then JR 1 h after administration.
After grouping, bioluminescence detection was performed 1 to 2 times a week, according to the bioluminescence data, tumor growth inhibitory rate was calculated as follows: TGI (%)=[1−(Ti−T0)/(Vi−V0)]×100, wherein Ti represents the mean bioluminescence data of a given treatment group on a certain day; T0 represents the mean bioluminescence data of this treatment group at the beginning of administration; Vi represents the mean bioluminescence data of the vehicle control group on a certain day (the same day as that in Ti); V0 represents the mean bioluminescence data of the vehicle control group at the beginning of administration.

ATM = ATM (Homo sapiens (Human), UniProt Q13315); assay: Caliper mobility shift assay for ATM; assay type: biochemical; conditions: read-out: IC50 of inhibitory activity on ATM kinase
Sequence of ATM (Q13315 whole entry): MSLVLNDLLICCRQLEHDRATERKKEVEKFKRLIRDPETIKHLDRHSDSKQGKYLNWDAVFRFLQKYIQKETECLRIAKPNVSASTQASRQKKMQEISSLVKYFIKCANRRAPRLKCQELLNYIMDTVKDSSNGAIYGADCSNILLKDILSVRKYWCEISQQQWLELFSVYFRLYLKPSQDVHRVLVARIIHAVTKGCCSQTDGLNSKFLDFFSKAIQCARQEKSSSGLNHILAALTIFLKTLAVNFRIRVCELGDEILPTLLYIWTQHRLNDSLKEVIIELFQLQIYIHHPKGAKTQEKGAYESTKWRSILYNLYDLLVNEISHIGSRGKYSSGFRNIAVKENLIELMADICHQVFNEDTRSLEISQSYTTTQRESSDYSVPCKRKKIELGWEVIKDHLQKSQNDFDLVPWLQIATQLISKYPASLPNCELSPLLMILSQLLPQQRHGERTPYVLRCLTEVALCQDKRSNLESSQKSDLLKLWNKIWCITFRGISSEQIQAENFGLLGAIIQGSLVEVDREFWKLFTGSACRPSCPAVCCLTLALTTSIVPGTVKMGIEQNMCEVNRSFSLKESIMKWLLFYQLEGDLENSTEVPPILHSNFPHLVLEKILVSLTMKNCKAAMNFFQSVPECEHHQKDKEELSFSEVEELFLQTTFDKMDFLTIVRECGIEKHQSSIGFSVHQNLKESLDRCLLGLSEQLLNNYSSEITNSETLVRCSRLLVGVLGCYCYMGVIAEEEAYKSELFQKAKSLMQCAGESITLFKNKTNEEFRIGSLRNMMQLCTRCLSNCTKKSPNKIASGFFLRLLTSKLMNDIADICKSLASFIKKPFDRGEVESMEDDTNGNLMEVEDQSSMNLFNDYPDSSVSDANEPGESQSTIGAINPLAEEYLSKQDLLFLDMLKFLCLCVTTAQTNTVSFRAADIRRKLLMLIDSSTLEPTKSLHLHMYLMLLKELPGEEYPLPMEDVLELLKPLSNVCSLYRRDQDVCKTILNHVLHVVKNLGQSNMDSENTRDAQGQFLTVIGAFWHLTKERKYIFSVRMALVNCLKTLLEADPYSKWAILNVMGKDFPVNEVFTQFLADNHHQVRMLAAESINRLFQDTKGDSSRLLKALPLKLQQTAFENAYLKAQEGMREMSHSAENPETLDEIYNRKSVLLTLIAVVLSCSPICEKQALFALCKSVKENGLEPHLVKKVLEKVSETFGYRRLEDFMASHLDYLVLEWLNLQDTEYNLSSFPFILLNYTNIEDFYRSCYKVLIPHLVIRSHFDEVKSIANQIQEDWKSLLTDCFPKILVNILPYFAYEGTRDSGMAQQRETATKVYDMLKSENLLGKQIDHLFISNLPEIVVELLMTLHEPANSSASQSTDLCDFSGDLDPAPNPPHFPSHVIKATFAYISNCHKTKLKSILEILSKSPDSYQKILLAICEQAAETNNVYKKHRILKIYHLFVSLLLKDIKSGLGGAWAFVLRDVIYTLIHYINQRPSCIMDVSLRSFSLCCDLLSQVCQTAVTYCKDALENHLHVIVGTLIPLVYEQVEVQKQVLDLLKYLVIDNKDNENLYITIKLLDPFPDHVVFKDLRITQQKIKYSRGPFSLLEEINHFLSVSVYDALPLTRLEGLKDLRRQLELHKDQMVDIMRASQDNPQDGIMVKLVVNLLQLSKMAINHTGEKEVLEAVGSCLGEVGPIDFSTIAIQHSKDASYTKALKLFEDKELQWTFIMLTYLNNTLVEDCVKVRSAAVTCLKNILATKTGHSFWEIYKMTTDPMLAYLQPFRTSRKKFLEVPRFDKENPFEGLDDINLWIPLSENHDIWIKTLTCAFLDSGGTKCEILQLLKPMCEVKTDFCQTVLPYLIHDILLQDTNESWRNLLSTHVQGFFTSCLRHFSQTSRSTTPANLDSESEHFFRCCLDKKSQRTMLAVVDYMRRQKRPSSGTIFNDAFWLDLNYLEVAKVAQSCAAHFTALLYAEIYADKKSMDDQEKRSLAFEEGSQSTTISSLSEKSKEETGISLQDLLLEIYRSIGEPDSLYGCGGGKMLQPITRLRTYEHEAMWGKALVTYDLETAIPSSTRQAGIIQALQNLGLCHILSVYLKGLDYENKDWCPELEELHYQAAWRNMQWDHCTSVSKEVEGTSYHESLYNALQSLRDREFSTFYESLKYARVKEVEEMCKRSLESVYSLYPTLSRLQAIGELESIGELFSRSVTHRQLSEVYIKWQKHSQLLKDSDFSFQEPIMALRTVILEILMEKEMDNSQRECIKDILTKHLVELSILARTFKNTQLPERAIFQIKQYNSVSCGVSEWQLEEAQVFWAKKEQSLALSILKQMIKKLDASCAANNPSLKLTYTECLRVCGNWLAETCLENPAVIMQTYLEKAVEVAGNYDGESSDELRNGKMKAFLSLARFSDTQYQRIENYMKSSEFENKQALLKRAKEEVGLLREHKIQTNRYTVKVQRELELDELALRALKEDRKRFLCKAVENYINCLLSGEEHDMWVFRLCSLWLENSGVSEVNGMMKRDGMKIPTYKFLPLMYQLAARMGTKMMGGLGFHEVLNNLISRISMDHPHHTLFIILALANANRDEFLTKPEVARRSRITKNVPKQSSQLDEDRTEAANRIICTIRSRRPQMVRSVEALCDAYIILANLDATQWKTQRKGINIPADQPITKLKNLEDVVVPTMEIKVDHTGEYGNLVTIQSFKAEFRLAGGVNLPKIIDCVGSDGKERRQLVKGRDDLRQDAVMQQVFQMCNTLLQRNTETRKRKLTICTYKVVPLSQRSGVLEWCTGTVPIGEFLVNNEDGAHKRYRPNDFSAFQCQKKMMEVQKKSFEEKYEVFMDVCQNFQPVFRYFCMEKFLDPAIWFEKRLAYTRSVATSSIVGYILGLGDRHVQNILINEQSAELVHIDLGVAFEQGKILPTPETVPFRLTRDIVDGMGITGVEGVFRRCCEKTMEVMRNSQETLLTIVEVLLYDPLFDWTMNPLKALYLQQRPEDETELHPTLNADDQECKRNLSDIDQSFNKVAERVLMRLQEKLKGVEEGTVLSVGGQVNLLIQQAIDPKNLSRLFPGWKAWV
Procedure: 1.2 Determination of the Inhibitory Activities of Compounds on ATM: Caliper Mobility Shift Assay for ATM
To a 96-well plate, 98 μL of DMSO and 2 μL of the 10 mM stock solution were added and mixed evenly so that the concentration of the solution was 200 μM.
Based on the inhibitory rates of the compound at different concentrations, IC50 was calculated according to the formula: Y=Bottom+(Top−Bottom)/(1+(IC50/X)^HillSlope).

[3] = tested on: subcutaneous xenograft tumor of human glioblastoma LN-18; assay: LN-18 subcutaneous xenograft, combined with radiotherapy; assay type: in vivo, NOG mice; conditions: compound 20 mg/kg intragastric qd × 5 + IR 1 Gy, day 17
Procedure: 9 Efficacy Test of the Compounds of the Present Disclosure Combined with Radiotherapy on Inhibiting the Growth of Subcutaneous Xenograft Tumor of Human Glioblastoma LN-18
9.1 Experimental Animals: NOG Mice, SPF, Female, 18 to 22 g.
LN-18 tumor cells, DMEM medium:fetal bovine serum=95%:5%, accompanied by adding 100 U/mL penicillin and 100 μg/mL streptomycin, 37° C., 5% CO2.
LN18 tumor cells resuspended in serum-free DMEM medium were inoculated subcutaneously in the right costal region of experimental animals at 1.5*10^7/0.15 mL, and the animals were grouped when the tumor grew to 100 to 150 mm^3. Radiotherapy was performed 1 h after administration of compounds.
Tumor volume: The tumor volume was measured twice a week with a vernier caliper, and the long diameter and short diameter of tumor were measured. The tumor volume was calculated as follows: tumor volume (TV)=0.5×long diameter×short diameter^2. Tumor growth inhibitory rate (TGI %) was calculated according to the tumor volume. TVXn represents the mean tumor volume on day n of the treatment group, TVX0 represents the mean tumor volume on day 0 of the treatment group, TVMn represents the mean tumor volume on day n of the control group, and TVM0 represents the mean tumor volume on day 0 of the control group.

[4] = compound 25 mg/kg intragastric + irinotecan liposome 2.5 mg/kg ip, day 17
[5] = compound 25 mg/kg intragastric + irinotecan liposome 2.5 mg/kg ip, end of test d17

C[C@@H]1COc2c(-c3ccc(OCCCN4CCCCC4)nc3)ccc3ncc4c(c23)n1c(=O)n4C [Example A-182, (R)-2,10-dimethyl-7-(6-(3-(piperidin-1-yl)propoxy)pyridin-3-yl)-9,10-dihydro-8-oxa-2,4,10a-triazanaphtho[2,1,8-cde]azulen-1(2H)-one] was tested, and the “inhibitory effect on tumor volume and tumor weight, in words” value ([1]; combined with irinotecan liposome injection, compared with AZD1390) was “higher than those of AZD1390”, the “D 17 TGI” value [1, 4] was 75.1% and the “D 17 TV (MEAN ± SD)” value [1, 4] was 278.5 ± 94.1***^## mm^3. The Tumor weight [1, 5] was 0.26 ± 0.07 g, the “Tumor weight inhibitory rate” value [1, 5] was 56.1% and the “anti-tumor activity, in words” value ([2]; combined with radiotherapy, compared with AZD1390) was “equivalent to that of AZD1390”. For the same compound, the “D17 BLI” value ([2]; compound 10 mg/kg intragastric qd × 5 + IR 2 Gy, day 17) was 5.24*** LOG10, the “D 17 TGI” value ([2]; compound 10 mg/kg intragastric qd × 5 + IR 2 Gy, day 17, from bioluminescence) was 110.08% and the IC50 (ATM) was 0.46 nM. The “D 17 TGI” value [3] was 85.5% and the “D 17 TV (MEAN ± SD)” value [3] was 271 ± 107***^# mm^3.
